According to US6461997B1, “Triazole sulfones having herbicidal activity” (Monsanto Technology LLC, priority 1999, dated 2002):

Experiments:
ECHCG (barnyardgrass) = assay: Pre-emergence herbicidal activity, warm season; format: in vivo, Echinochloa crus-galli; conditions: GR80 = lowest tested rate (300, 100, 30, 10 g/ha) with 80% or greater inhibition; approx. 14 days after treating; 30/21° C.
Method in brief: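 GR80 values derive from percent inhibition relative to untreated plants, read roughly 14 days after sowing and pre-emergence soil-surface treatment (compound in 50:50 acetone/water; rates typically 10, 30, 100, 300 g/ha). Warm-season weeds grew at 30/21° C day/night, cool-season ones at 18/13° C; an asterisk marks activity without reaching 80% at the highest rate.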

SETFA (giant foxtail) = assay: Pre-plant incorporated (PPI) herbicidal activity, warm season; format: in vivo, Setaria faberi
Method in brief: (§1)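 Seeds were sown on compacted topsoil and covered with soil that had been sprayed with compound in organic solvent and mixed through. Pots got 0.64 cm overhead irrigation, then greenhouse at 30/21 °C (warm-season species) or 18/13 °C (cool-season species) day/night. Percent inhibition versus untreated plants was scored about 14 days after planting.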

wheat (TRZAW) = assay: Selectivity test, PPI, cool season crop; format: in vivo, Triticum aestivum; conditions: PPI application
Method in brief: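 Pre-plant incorporated: compound in organic solvent sprayed onto cover soil, mixed and laid over seeds; untreated soil for controls. Greenhouse after treatment: warm season 30/21° C., cool season 18/13° C. day/night. Percent inhibition versus untreated plants scored about 14 days after planting.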

[1] = test system: PANMI (wild proso millet); assay: Pre-plant incorporated (PPI) herbicidal activity, warm season; format: in vivo, Panicum miliaceum
Method in brief: as §1

AMARE (redroot pigweed) = assay: as above; format: in vivo, Amaranthus retroflexus
Method in brief: as §1

[2] = test system: AGSST (creeping bentgrass); assay: Pre-plant incorporated (PPI) herbicidal activity, cool season; format: in vivo, Agrostis stolonifera
Method in brief: as §1

[3] = test system: GALAP (catchweed bedstraw); assay: Pre-emergence herbicidal activity, cool season; format: in vivo, Galium aparine; conditions: lowest tested rate with 80% or greater inhibition; rates 300, 100, 30, 10 g/ha; about 14 days
Method in brief: (§2)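 Seeds sown in sterilised fertilised topsoil received surface-applied compound in 50:50 acetone/water, typically at 300, 100, 30 and 10 g/ha, then greenhouse-grown at 30/21° C (warm-season species) or 18/13° C (cool-season species). Percent inhibition versus untreated plants was scored at about 14 days, giving GR80; an asterisk marks activity short of 80% at the top rate.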

[4] = test system: CHEAL (common lambsquarters); assay: Pre-plant incorporated (PPI) herbicidal activity, warm season; format: in vivo, Chenopodium album; conditions: for Percent inhibition CHEAL: PPI application
Method in brief: as §1

SOLNI (black nightshade) = assay: as above; format: in vivo, Solanum nigrum
Method in brief: as §1

ALOMY (blackgrass) = assay: Pre-emergence herbicidal activity, cool season; format: in vivo, Alopecurus myosuroides; conditions: GR80 = lowest tested rate (300, 100, 30, 10 g/ha) with 80% or greater inhibition; approx. 14 days after treating; 18/13° C.
Method in brief: as §2

[5] = pre-plant incorporated, lowest tested rate with 80% or greater inhibition, about 14 days
[6] = pre-plant incorporated, GR80 = lowest tested rate with 80% or greater inhibition, approx. 14 days after treating, 30/21° C.

Q: Which results are given for `C=CCC(F)(F)S(=O)(=O)c1ncn(C(=O)N(CC)CC)n1` [Example 17, 1-(N,N-diethylcarbamoyl)-3-[(1,1-difluoro-3-butenyl)sulfonyl]-1,2,4-triazole]?
A: Pre-emergence activity (GR80) ECHCG (ECHCG (barnyardgrass)): 100 g/ha; inhibition at 10 g/ha (SETFA (giant foxtail); Setaria faberi, PPI application, 10 g/ha, read-out: Percent inhibition SETFA): 100%; inhibition at 30 g/ha (SETFA (giant foxtail); Setaria faberi, PPI application, 30 g/ha, read-out: Percent inhibition SETFA): 100%; inhibition at 100 g/ha (SETFA (giant foxtail); Setaria faberi, PPI application, 100 g/ha, read-out: Percent inhibition SETFA): 100%; inhibition at 300 g/ha (SETFA (giant foxtail); Setaria faberi, PPI application, 300 g/ha, read-out: Percent inhibition SETFA): 100%; inhibition at 900 g/ha (SETFA (giant foxtail); Setaria faberi, PPI application, 900 g/ha, read-out: Percent inhibition SETFA): 100%; PPI activity GR80, SETFA (SETFA (giant foxtail); [5]): 10 g/ha; inhibition at 10 g/ha (wheat (TRZAW); Triticum aestivum, 10 g/ha, read-out: Percent inhibition TRZAW): 0%; inhibition at 30 g/ha (wheat (TRZAW); Triticum aestivum, 30 g/ha, read-out: Percent inhibition TRZAW): 0%; inhibition at 100 g/ha (wheat (TRZAW); Triticum aestivum, 100 g/ha, read-out: Percent inhibition TRZAW): 10%; inhibition at 300 g/ha (wheat (TRZAW); Triticum aestivum, 300 g/ha, read-out: Percent inhibition TRZAW): 30%; inhibition at 900 g/ha (wheat (TRZAW); Triticum aestivum, 900 g/ha, read-out: Percent inhibition TRZAW): 60%; inhibition at 10 g/ha ([1]; Panicum miliaceum, PPI application, 10 g/ha, read-out: Percent inhibition PANMI): 60%; inhibition at 30 g/ha ([1]; Panicum miliaceum, PPI application, 30 g/ha, read-out: Percent inhibition PANMI): 100%; inhibition at 100 g/ha ([1]; Panicum miliaceum, PPI application, 100 g/ha, read-out: Percent inhibition PANMI): 100%; inhibition at 300 g/ha ([1]; Panicum miliaceum, PPI application, 300 g/ha, read-out: Percent inhibition PANMI): 100%; inhibition at 900 g/ha ([1]; Panicum miliaceum, PPI application, 900 g/ha, read-out: Percent inhibition PANMI): 100%; PPI activity GR80, PANMI [1, 5]: 10 g/ha; inhibition at 10 g/ha (AMARE (redroot pigweed); Amaranthus retroflexus, PPI application, 10 g/ha, read-out: Percent inhibition AMARE): 60%; inhibition at 30 g/ha (AMARE (redroot pigweed); Amaranthus retroflexus, PPI application, 30 g/ha, read-out: Percent inhibition AMARE): 95%; inhibition at 100 g/ha (AMARE (redroot pigweed); Amaranthus retroflexus, PPI application, 100 g/ha, read-out: Percent inhibition AMARE): 100%; inhibition at 300 g/ha (AMARE (redroot pigweed); Amaranthus retroflexus, PPI application, 300 g/ha, read-out: Percent inhibition AMARE): 100%; inhibition at 900 g/ha (AMARE (redroot pigweed); Amaranthus retroflexus, PPI application, 900 g/ha, read-out: Percent inhibition AMARE): 100%; PPI activity (GR80) AMARE (AMARE (redroot pigweed); [6]): 10 g/ha; inhibition at 10 g/ha ([2]; Agrostis stolonifera, weed, PPI application, 10 g/ha, read-out: Percent inhibition AGSST): 70%; inhibition at 30 g/ha ([2]; Agrostis stolonifera, weed, PPI application, 30 g/ha, read-out: Percent inhibition AGSST): 95%; inhibition at 100 g/ha ([2]; Agrostis stolonifera, weed, PPI application, 100 g/ha, read-out: Percent inhibition AGSST): 95%; inhibition at 300 g/ha ([2]; Agrostis stolonifera, weed, PPI application, 300 g/ha, read-out: Percent inhibition AGSST): 100%; inhibition at 900 g/ha ([2]; Agrostis stolonifera, weed, PPI application, 900 g/ha, read-out: Percent inhibition AGSST): 100%; PPI activity GR80, AGSST [2, 5]: 10 g/ha; Pre-emergence activity GR80, GALAP [3]: 100 g/ha; PPI activity (GR80) CHEAL [4, 6]: 300 g/ha; inhibition at 10 g/ha (SOLNI (black nightshade); Solanum nigrum, PPI application, 10 g/ha, read-out: Percent inhibition SOLNI): 0%; inhibition at 30 g/ha (SOLNI (black nightshade); Solanum nigrum, PPI application, 30 g/ha, read-out: Percent inhibition SOLNI): 0%; inhibition at 100 g/ha (SOLNI (black nightshade); Solanum nigrum, PPI application, 100 g/ha, read-out: Percent inhibition SOLNI): 80%; inhibition at 300 g/ha (SOLNI (black nightshade); Solanum nigrum, PPI application, 300 g/ha, read-out: Percent inhibition SOLNI): 70%; inhibition at 900 g/ha (SOLNI (black nightshade); Solanum nigrum, PPI application, 900 g/ha, read-out: Percent inhibition SOLNI): 100%; PPI activity (GR80) SOLNI (SOLNI (black nightshade); [6]): 30 g/ha; Pre-emergence activity (GR80) ALOMY (ALOMY (blackgrass)): 100 g/ha

Q: How did the “Pre-emergence activity (GR80) ECHCG” value (ECHCG (barnyardgrass)) turn out when `CCN(CC)C(=O)n1cnc(S(=O)(=O)C(F)(F)C(F)(F)Br)n1` [Example 4] was run?
A: 100 g/ha

Q: And the “Percent inhibition SETFA” value (SETFA (giant foxtail); PPI application, 30 g/ha)?
A: 100%

Q: What about the “Percent inhibition SETFA” value (SETFA (giant foxtail); PPI application, 100 g/ha) of the same compound?
A: 100%

Q: And the “Percent inhibition SETFA” value (SETFA (giant foxtail); PPI application, 300 g/ha)?
A: 100%

Q: And the “Percent inhibition SETFA” value (SETFA (giant foxtail); PPI application, 900 g/ha)?
A: 100%

Q: And the “Percent inhibition TRZAW” value (wheat (TRZAW); 30 g/ha)?
A: 0%

Q: And the “Percent inhibition TRZAW” value (wheat (TRZAW); 100 g/ha)?
A: 10%

Q: What about the “Percent inhibition TRZAW” value (wheat (TRZAW); 300 g/ha) of the same compound?
A: 30%

Q: What about the “Percent inhibition TRZAW” value (wheat (TRZAW); 900 g/ha) of the same compound?
A: 45%

Q: What about the “Percent inhibition PANMI” value ([1]; PPI application, 30 g/ha) of the same compound?
A: 0%

Q: What about the “Percent inhibition PANMI” value ([1]; PPI application, 100 g/ha) of the same compound?
A: 100%

Q: What about the “Percent inhibition PANMI” value ([1]; PPI application, 300 g/ha) of the same compound?
A: 100%

Q: And the “Percent inhibition PANMI” value ([1]; PPI application, 900 g/ha)?
A: 100%

Q: And the “Percent inhibition AMARE” value (AMARE (redroot pigweed); PPI application, 30 g/ha)?
A: 70%

Q: What about the “Percent inhibition AMARE” value (AMARE (redroot pigweed); PPI application, 100 g/ha) of the same compound?
A: 100%

Q: And the “Percent inhibition AMARE” value (AMARE (redroot pigweed); PPI application, 300 g/ha)?
A: 100%

Q: And the “Percent inhibition AMARE” value (AMARE (redroot pigweed); PPI application, 900 g/ha)?
A: 100%

Q: What about the “Percent inhibition AGSST” value ([2]; weed, PPI application, 30 g/ha) of the same compound?
A: 100%

Q: What about the “Percent inhibition AGSST” value ([2]; weed, PPI application, 100 g/ha) of the same compound?
A: 100%

Q: And the “Percent inhibition AGSST” value ([2]; weed, PPI application, 300 g/ha)?
A: 100%

Q: What about the “Percent inhibition AGSST” value ([2]; weed, PPI application, 900 g/ha) of the same compound?
A: 100%

Q: What about the “Pre-emergence activity GR80, GALAP” value [3] of the same compound?
A: 100 g/ha

Q: And the “Percent inhibition CHEAL” value ([4]; 30 g/ha)?
A: 60%

Q: And the “Percent inhibition CHEAL” value ([4]; 100 g/ha)?
A: 100%

Q: And the “Percent inhibition CHEAL” value ([4]; 300 g/ha)?
A: 100%

Q: And the “Percent inhibition CHEAL” value ([4]; 900 g/ha)?
A: 100%

Q: What about the “Percent inhibition SOLNI” value (SOLNI (black nightshade); PPI application, 30 g/ha) of the same compound?
A: 60%

Q: And the “Percent inhibition SOLNI” value (SOLNI (black nightshade); PPI application, 100 g/ha)?
A: 95%

Q: What about the “Percent inhibition SOLNI” value (SOLNI (black nightshade); PPI application, 300 g/ha) of the same compound?
A: 100%

Q: And the “Percent inhibition SOLNI” value (SOLNI (black nightshade); PPI application, 900 g/ha)?
A: 100%

Q: And the “Pre-emergence activity (GR80) ALOMY” value (ALOMY (blackgrass))?
A: 300 g/ha
